Test results taken from patent publication US20130345215A1, “PYRAZOLOPYRIMIDONE AND PYRAZOLOPYRIDONE INHIBITORS OF TANKYRASE” (Genentech, Inc., priority 2012, published 2013).

System: Wnt stimulated TCF transcriptional activity, HEK293-TS 112 TCF reporter cell line
Experiment: Tankyrase 1 Assay (Example 119): Wnt3A-stimulated TOPbrite TCF luciferase reporter
Format: cell-based
Settings: Compounds I-59 to I-144, procedure in Example 119 (0.5 ug/mL Wnt3A, 16 hours); read-out: TNKS1 (IC50)
Protocol: Inhibition of the Wnt stimulated TCF transcriptional activity by tankyrase inhibitors was determined utilizing a HEK293-TS 112 TCF reporter cell line. A Wnt-responsive luciferase reporter named TOPbrite was constructed by cloning the enhancer element of Super8xTOPFlash containing eight TCF/LEF binding sites into the pGL4.28 vector (Promega) upstream of the minimal promoter element, and selecting for hygromycin B resistance (50 μg/ml). Cells were seeded into 384-well plates in the presence of 0.5 ug/mL of Wnt3A at a density of 20,000 cells per well in 25 ul of F:12 DMEM media supplemented with 10% FBS and 2 mM Glutamax. Cells seeded without the addition of Wnt3A were used as background signal. Compounds of various concentrations were added to cells and incubated at 37 degrees with 5% CO2 for 16 hours. The assay was terminated with the addition of Promega Dual Glo kit per manufacturer's instructions. A ratio of TOPbrite Firefly Luciferase and SV40 Renillla Luciferase was calculated and the background from the neutral wells was subtracted yielding the final normalized measurement of TCF transcriptional activity. Compound IC50s were determined by four-parameter curve fitting using GeneData software.

Compound	IC50
CN1CCN(Cc2cc(F)c(N3CCN(c4nc5c(cnn5C)c(=O)[nH]4)CC3)c(F)c2)CC1 [Compound I-60, 6-[4-[2 6-difluoro-4-[(4-methylpiperazin-1-yl)methyl]phenyl]piperazin-1-yl]-1-methyl-5H-pyrazolo[3 4-d]pyrimidin-4-one]	3.8 nM
Cn1ncc2c(=O)[nH]c(N3CCC(c4ccccn4)CC3)nc21 [Compound I-111, 1-methyl-6-[4-(2-pyridyl)-1-piperidyl]-5H-pyrazolo[3 4-d]pyrimidin-4-one]	83.8 nM
CCn1ccc(C2(C)CCN(c3nc4c(cnn4C)c(=O)[nH]3)CC2)n1 [Compound I-92, 6-[4-(1-ethylpyrazol-3-yl)-4-methyl-1-piperidyl]-1-methyl-5H-pyrazolo[3 4-d]pyrimidin-4-one]	24.5 nM
Cc1noc(C2(C)CCN(c3nc4c(cnn4C)c(=O)[nH]3)CC2)n1 [Compound I-91, 1-methyl-6-[4-methyl-4-(3-methyl-1 2 4-oxadiazol-5-yl)-1-piperidyl]-5H-pyrazolo[3 4-d]pyrimidin-4-one]	24.1 nM
Cn1ncc2c(=O)[nH]c(-c3ccc(S(C)(=O)=O)cn3)nc21 [Compound I-139, 1-methyl-6-(5-methylsulfonyl-2-pyridyl)-5H-pyrazolo[3 4-d]pyrimidin-4-one]	547 nM
Cn1ccc(C2(C)CCN(c3nc4c(cnn4C)c(=O)[nH]3)CC2)n1 [Compound I-90, 1-methyl-6-[4-methyl-4-(1-methylpyrazol-3-yl)-1-piperidyl]-5H-pyrazolo[3 4-d]pyrimidin-4-one]	23.6 nM
Cn1ncc2c(=O)[nH]c(-c3ccc(S(C)(=O)=O)cc3)nc21 [Compound I-102, 1-methyl-6-(4-methylsulfonylphenyl)-5H-pyrazolo[3 4-d]pyrimidin-4-one]	47.9 nM
Cn1cnnc1C1CCN(c2nc3c(cnn3C)c(=O)[nH]2)CC1 [Compound I-122, 1-methyl-6-[4-(4-methyl-1 2 4-triazol-3-yl)-1-piperidyl]-5H-pyrazolo[3 4-d]pyrimidin-4-one]	163 nM
O=c1[nH]c(N2CCN(c3c(F)cc(F)cc3F)CC2)nc2[nH]ncc12 [Compound I-104, 6-[4-(2 4 6-trifluorophenyl)piperazin-1-yl]-1 5-dihydropyrazolo[3 4-d]pyrimidin-4-one]	55 nM
COCCOc1cc(F)c(N2CCN(c3nc4c(cnn4C4CCOCC4)c(=O)[nH]3)CC2)c(F)c1 [Compound I-123, 6-[4-[2 6-difluoro-4-(2-methoxyethoxy)phenyl]piperazin-1-yl]-1-tetrahydropyran-4-yl-5H-pyrazolo[3 4-d]pyrimidin-4-one]	168 nM
Cn1ncc2c(=O)[nH]c(N3CCC(c4nc(-c5cnccn5)no4)CC3)nc21 [Compound I-106, 1-methyl-6-[4-(3-pyrazin-2-yl-1 2 4-oxadiazol-5-yl)-1-piperidyl]-5H-pyrazolo[3 4-d]pyrimidin-4-one]	64.1 nM
Cn1ncc2c(=O)[nH]c(N3CCC(Cc4ccccn4)CC3)nc21 [Compound I-117, 1-methyl-6-[4-(2-pyridylmethyl)-1-piperidyl]-5H-pyrazolo[3 4-d]pyrimidin-4-one]	112 nM
Cn1ncc2c(=O)[nH]c(N3CCN(c4c(F)cc(C(O)CO)cc4F)CC3)nc21 (stereo not drawn) [Compound I-63, 6-[4-[4-(1 2-dihydroxyethyl)-2 6-difluoro-phenyl]piperazin-1-yl]-1-methyl-5H-pyrazolo[3 4-d]pyrimidin-4-one]	5.3 nM
COCCO[C@H]1CC[C@H](N2CCN(c3nc4c(cnn4C)c(=O)[nH]3)CC2)CC1 [Compound I-121, 6-[4-[4-(2-methoxyethoxy)cyclohexyl]piperazin-1-yl]-1-methyl-5H-pyrazolo[3 4-d]pyrimidin-4-one]	159 nM
Cn1ncc2c(=O)[nH]c(N3CCN(c4c(F)cc(OC(CO)CCl)cc4F)CC3)nc21 (stereo not drawn) [Compound I-64, 6-[4-[4-[1-(chloromethyl)-2-hydroxy-ethoxy]-2 6-difluoro-phenyl]piperazin-1-yl]-1-methyl-5H-pyrazolo[3 4-d]pyrimidin-4-one]	6.4 nM
